Literature values as cited in patent US20250275937A1, “Methods For Reducing Negative Effects Of Alcohol Consumption” (Honed Life Sciences, LLC, priority 2018, published 2025).

What was measured:
[1] = system: acute alcohol (EtOH) intoxication; settings: rats
[2] = system: oxidative stress and liver fibrogenesis; settings: mice

| Structure (SMILES) | Counteracting acute alcohol (EtOH) intoxication and withdrawal signs (tolerance, increased anxiety, seizure susceptibility) [1] | Action on acute EtOH-induced potentiation of GABA receptors (GABA receptors) | Effect on oxidative stress and liver fibrogenesis [2] |
| --- | --- | --- | --- |
| O=C1c2c(O)cc(O)cc2O[C@H](c2cc(O)c(O)c(O)c2)[C@H]1O [DHM, dihydromyricetin] | highly effective | antagonizing |  |
| O=C(O)c1cc(C(=O)O)c2c(n1)C(=O)C(=O)c1cc(C(=O)O)[nH]c1-2 [PQQ, pyrroloquinoline quinone] |  |  | suppresses oxidative stress and liver fibrogenesis |
